Measured values from PubChem BioAssay (NCI).
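48-hour exposure; five concentrations; linearly interpolated endpoints. TGI denotes the concentration required for complete inhibition of growth.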

Key:
Test in all cases: NCI-60 cell line screen, 48 h
[1] = system: HCC-2998 colon
[2] = system: HCT-116 colon
[3] = system: HOP-92 NSCLC
[4] = system: HS 578T breast
[5] = system: KM12 colon
[6] = system: LOX IMVI melanoma
[7] = system: M14 melanoma
[8] = system: MDA-N
[9] = system: NCI-H226 lung
[10] = system: NCI/ADR-RES ovarian
[11] = system: OVCAR-4 ovarian
[12] = system: PC-3 prostate
[13] = system: SF-295 CNS
[14] = system: SK-MEL-28 melanoma
[15] = system: SN12C renal
[16] = system: SNB-19 CNS
[17] = system: SNB-75 CNS
[18] = system: SR leukemia
[19] = system: UACC-62 melanoma

Row | SMILES | TGI [1] [µM] | TGI [2] [µM] | TGI [3] [µM] | TGI [4] [µM] | TGI [5] [µM] | TGI [6] [µM] | TGI [7] [µM] | TGI [8] [µM] | TGI [9] [µM] | TGI [10] [µM] | TGI [11] [µM] | TGI [12] [µM] | TGI [13] [µM] | TGI [14] [µM] | TGI [15] [µM] | TGI [16] [µM] | TGI [17] [µM] | TGI [18] [µM] | TGI [19] [µM]
1 | O=[N+]([O-])c1cc(-[n+]2cc([O-])on2)ccc1Cl | 34.9 | 39.8 | 42.1 | 31.3 | 54.9 | 33.7 | 41.8 | 39.9 | > 100 | 58.8 | 29.1 | > 100 | 51.5 | 29.6 | 29.8 | 27.1 | 66.3 | > 100 | 89.8
2 | O=C(O)CCCNc1ncc2c(n1)-c1ccccc1OC2 |  | > 100 | > 100 | > 100 | > 100 | > 100 | > 100 | > 100 | > 100 | > 100 | > 100 | > 100 | > 100 | > 100 | > 100 | > 100 | > 100 | > 100 | > 100
3 | O=c1[nH][nH]c(=O)n1/N=C/c1ccccc1 |  | > 100 | > 100 | > 100 | > 100 | > 100 | > 100 | > 100 | > 100 | > 100 |  | > 100 | > 100 | > 100 | > 100 | > 100 | > 100 | > 100 | > 100
4 | COc1cc2cc3c4c(cc(OC)c(OC)c4c2cc1OC)CCN3C | 33.1 | > 25.7 | > 50 | > 50 | > 50 | 16.7 | > 50 | > 50 | 26.7 | > 48.2 | 12 | > 29.9 | > 31.8 | > 50 | > 50 | > 50 | 27.8 | > 10.8 | 14.3
5 | CN(C)CCCNC(=O)c1cc(NS(=O)(=O)c2ccc3c(c2)C(=O)c2ccccc2C3=O)cn1C | 57.3 | > 100 | > 100 | > 100 | 41.1 | 39.6 | 62.8 | 60 | 42.5 | > 100 | 36.8 | > 100 | 94.9 | 50.8 | 90.7 | 39.6 | 56 | 85.2 | 41.4
6 | COC(=O)c1c(C)c2c(c(C)c1C(=O)OC)-c1c(C)ccc3ccc(C)c-2c13 |  | > 100 |  | > 100 | > 100 | > 86.5 | > 100 | > 100 | > 100 | > 100 | > 100 | > 100 | > 87.1 | > 100 | > 100 | > 100 | > 100 | 46.9 | > 100
7 | CCOC(=O)OC1C(Br)C2CCC1(C)C2(C)C (stereo unspecified) | 25.1 | 20.9 | 27.6 | 32.5 | 28.4 | 18.9 | 25.6 | 28.5 | 28.1 | 32.7 | 25.1 | 23.6 | 29.5 | 29.3 | 28.1 | 28.3 | 24.6 | 5.83 | 32.1
8 | Cc1cn(Cc2cccc(C3=NCCCN3)c2)c(=O)n(Cc2cccc(C3=NCCCN3)c2)c1=O | > 100 | > 100 | > 100 | > 100 | > 100 | > 100 | > 100 | > 100 |  | > 100 | > 100 | > 100 | > 100 | > 100 | > 100 | > 100 | > 100 | > 100 | > 100
9 | COc1ccc(N=Nc2ccc3oc(=O)c(C(=O)Nc4ccccc4C)cc3c2)cc1 | > 10 |  | > 10 | > 10 | > 10 | > 10 | > 10 | > 10 | > 10 | > 10 | > 10 | > 10 | > 10 | > 10 | > 10 |  | > 10 | > 10 | 
10 | CCOC(=O)CCC(NC(=O)c1ccc(Oc2nc3c(N)cc(C(F)(F)F)cc3nc2-c2ccccc2)cc1)C(=O)OCC (stereo unspecified) | > 100 | > 25.2 | > 100 | > 72.8 | > 100 | > 100 | > 100 | > 100 | > 55.8 | > 100 | > 100 | > 79.4 | 96.8 | > 100 | > 100 | > 80.9 | 25.4 | > 100 | > 100
11 | COC(=O)Cc1c([C@H]2[C@H](CC(=O)OC)c3ccccc3N2S(=O)(=O)c2ccc(C)cc2)[nH]c2ccccc12 | > 100 | > 100 | > 100 | > 100 | > 100 | > 100 | > 100 | > 100 | > 100 | > 100 | > 100 | > 100 | > 100 | > 100 | > 100 | > 100 | > 100 | > 84.9 | > 100
12 | CCS(=O)c1c2cc(OC)ccc2nc2ccc(OC)cc12 (stereo unspecified) | 41.8 | 7.52 | > 53.1 | 38.9 | 41 | > 100 | 37.6 | 16.3 | 47.8 | 44.6 | 36.1 | 24.9 | 63.4 | 23.4 | 8.99 | 45.4 | 38.2 | > 25 | 33.4
13 | CCOC(=O)c1c(N2CCCC2)[nH]c(=O)c(C(c2ccc(Cl)c([N+](=O)[O-])c2)c2c(O)c(C(=O)OCC)c(N3CCCC3)[nH]c2=O)c1O | > 100 | > 100 | 58.3 | > 100 | > 100 | 49.4 | 42.7 | 79.6 | > 100 | 73.4 | > 100 | 83.9 | > 100 | > 100 | > 100 | 49.9 | 34.4 | > 100 | 86
14 | CCc1c(CNC2=NCCN2)c(CC)c(CNC2=NCCN2)c(CC)c1CNC1=NCCN1 | > 100 | > 100 | > 100 | > 100 | > 100 |  | > 100 | > 100 | > 100 | > 100 | > 100 | > 100 | > 100 | > 100 | > 100 | > 100 | > 100 | > 100 | > 100
15 | O=C(COc1ccccc1)N(C(=O)N1CCN(c2ccccc2)CC1)S(=O)(=O)c1ccccc1 | > 100 | > 100 | > 100 | > 100 | > 100 | > 100 | > 100 | > 100 | > 100 | > 100 | > 100 | > 100 | > 100 | > 100 | > 100 | > 100 | 96 | 45.4 | > 100
16 | Nc1cc2ncnn2c(SCC(=O)N/N=C/C(Br)=C\c2ccccc2)n1 | 40.6 | > 100 |  | > 100 | 52.7 | 45.6 |  | 31.6 | 68.6 | 91.8 |  | 27.7 | 67.7 | 37.6 | 48.4 | > 100 | > 100 | > 100 | 
17 | O=S(=O)(O)c1ccc2c(N=Nc3ccc(S(=O)(=O)O)c4ccccc34)c(O)c(S(=O)(=O)O)cc2c1 | > 100 | > 100 | > 100 | > 100 | > 100 | > 100 | > 100 | > 100 | > 100 | > 100 | > 100 | > 100 | > 100 | > 100 | > 100 | > 100 | > 100 | > 100 | > 100
18 | CN(/N=C/c1ccccn1)C1=NCCCN1 | > 100 | > 100 | > 100 | > 100 | > 100 | > 100 | > 100 | > 100 | > 100 | > 100 | > 100 | > 100 | > 100 | > 100 |  | > 100 | > 100 | > 100 | > 100
19 | CC/C(Cl)=N\OC(=O)Nc1ccc(OC)c(C)c1 | 43.2 | 29.6 | 5.69 | 59.2 | > 60 | 31.1 | 44.1 | 41 | 70.4 | 37.5 | 36.5 | > 92.6 | > 100 | 62 | 32.4 | > 100 | > 100 | 26.9 | 28.9
20 | Nc1ncc(C=O)c(NCC2(CO)CCC2)n1 | > 100 | > 100 | 87.8 | > 100 | > 100 | > 100 |  | > 100 | > 100 | > 100 | > 100 | > 100 | > 100 |  | > 100 |  | > 100 | > 100 | 81.2
21 | c1ccc(-c2c(-c3cccs3)[nH]c(-c3cccs3)c2-c2ccccn2)nc1 | 44.3 | > 100 | 55.4 | 59.7 | 62.6 | 37.1 | 40.7 | > 100 | 49.2 | 64.8 |  | 30.8 | 39.2 |  | 67.9 | > 100 | 42.9 | 81.1 | 35.6
22 | CCC/C(Cl)=N/OC(NC(=O)OCC)(C(F)(F)F)C(F)(F)F |  | 34.6 | 36.2 | 77.3 | > 100 | 35.4 | 32.1 | 35.9 | > 100 | > 100 | 31.7 | > 100 | > 100 | 59.2 | 32.6 | > 100 | > 100 | 57.6 | > 100
23 | c1ccc(Cn2c(-c3ccc(-c4ccccc4)cc3)cc3ccccc32)cc1 | > 100 | > 100 | > 100 | > 100 | > 100 | > 100 | > 100 | > 100 | > 100 | > 100 | > 100 | > 100 | > 100 | > 100 | > 100 | > 100 | > 100 | > 100 | > 100
